Measured values reported in PubChem BioAssay AID256 (DTP/NCI, 2004).
Several values for one entry are separate records, joined by “and”; a condition that tells them apart may be missing. Equal values may be shown once. Toxic doses and inconclusive results are not listed. Rule for the calls: active = survival T/C of 150% or more; inactive = T/C below 125% in these data.

System: CD2F1 mice, L1210 leukemia ip, survival T/C
Experiment: NCI In Vivo Anticancer Drug Screen. Data for tumor model L1210 Leukemia (intraperitoneal) in CD2F1 (CDF1) mice
Conditions: higher = longer survival
Summary of the method: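 Antitumor effect is scored in animals hosting a serially transplanted tumor. Values compare compound-dosed animals against vehicle-only controls as a simple quotient.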

[1] = endpoint: mean survival time, dose: 12.5 mg/kg/injection, schedule: Q01DX009 (ip), vehicle: saline with Tween-80
[2] = endpoint: mean survival time, dose: 25.0 mg/kg/injection, schedule: Q01DX009 (ip), vehicle: saline with Tween-80
[3] = endpoint: mean survival time, dose: 50.0 mg/kg/injection, schedule: Q01DX009 (ip), vehicle: saline with Tween-80
[4] = endpoint: mean survival time, dose: 100.0 mg/kg/injection, schedule: Q01DX009 (ip), vehicle: saline with Tween-80
[5] = endpoint: mean survival time, dose: 200.0 mg/kg/injection, schedule: Q01DX009 (ip), vehicle: saline with Tween-80
[6] = endpoint: mean survival time, dose: 400.0 mg/kg/injection, schedule: Q01DX009 (ip), vehicle: saline with Tween-80
[7] = endpoint: mean survival time, dose: 25.0 mg/kg/injection, schedule: Q04DX003 (ip), vehicle: saline with Tween-80
[8] = endpoint: mean survival time, dose: 5.0 mg/kg/injection, schedule: Q01DX009 (ip), vehicle: saline with Tween-80
[9] = endpoint: mean survival time, dose: 10.0 mg/kg/injection, schedule: Q01DX009 (ip), vehicle: saline with Tween-80
[10] = endpoint: mean survival time, dose: 100.0 mg/kg/injection, schedule: Q04DX003 (ip), vehicle: saline with Tween-80
[11] = endpoint: mean survival time, dose: 200.0 mg/kg/injection, schedule: Q04DX003 (ip), vehicle: saline with Tween-80
[12] = endpoint: mean survival time, dose: 400.0 mg/kg/injection, schedule: Q04DX003 (ip), vehicle: saline with Tween-80
[13] = endpoint: mean survival time, dose: 100.0 mg/kg/injection, schedule: Q01DX001 (ip), vehicle: saline with Tween-80
[14] = endpoint: mean survival time, dose: 200.0 mg/kg/injection, schedule: Q01DX001 (ip), vehicle: saline with Tween-80
[15] = endpoint: mean survival time, dose: 100.0 mg/kg/injection, schedule: Q04DX002 (ip), vehicle: saline with Tween-80
[16] = endpoint: mean survival time, dose: 200.0 mg/kg/injection, schedule: Q04DX002 (ip), vehicle: saline with Tween-80
[17] = endpoint: mean survival time, dose: 400.0 mg/kg/injection, schedule: Q01DX001 (ip), vehicle: saline with Tween-80

Measured: T/C

OC1(CSc2ccccc2)CCCCC1
inactive: [1] 98 % of control | [2] 101 % of control | [3] 102 % of control | [4] 102 % of control | [5] 104 % of control | [6] 101 % of control

CCC(O)C[As](=O)(O)c1ccccc1Cl (stereo not given)
inactive: endpoint: mean survival time, dose: 6.25 mg/kg/injection, schedule: Q04DX003 (ip), vehicle: saline with Tween-80 107 % of control | endpoint: mean survival time, dose: 12.5 mg/kg/injection, schedule: Q04DX003 (ip), vehicle: saline with Tween-80 98 % of control | [7] 104 % of control

O=C(CBr)c1ccccc1
inactive: [8] 97 % of control | [9] 93 % of control

Cc1ccc2c(c1Oc1ccc(S(N)(=O)=O)cc1)C(=O)c1ccccc1C2=O
inactive: [4] 103 % of control | endpoint: mean survival time, dose: 100.0 mg/kg/injection, schedule: Q04DX003 (ip), vehicle: saline sonified 88 % of control | [10] 90 % of control | [5] 101 % of control | [6] 97 % of control | endpoint: mean survival time, dose: 400.0 mg/kg/injection, schedule: Q04DX003 (ip), vehicle: saline sonified 107 % of control

COC(=O)C(C)=O
inactive: endpoint: mean survival time, dose: 100.0 mg/kg/injection, schedule: Q04DX003 (ip), vehicle: saline 97 % of control | endpoint: mean survival time, dose: 200.0 mg/kg/injection, schedule: Q04DX003 (ip), vehicle: saline 100 % of control | endpoint: mean survival time, dose: 400.0 mg/kg/injection, schedule: Q04DX003 (ip), vehicle: saline 102 % of control

Cc1ccc(NC(=O)Nc2ccccc2C(F)(F)F)cc1NC(=O)Nc1ccccc1C(F)(F)F
inactive: [10] 96 % of control | [11] 98 % of control | [12] 104 % of control

O=C1C=C(Nc2ccc([N+](=O)[O-])cc2Cl)c2ccccc2C1=O
inactive: endpoint: mean survival time, dose: 75.0 mg/kg/injection, schedule: Q01DX001 (ip), vehicle: saline 100 % of control | endpoint: mean survival time, dose: 150.0 mg/kg/injection, schedule: Q01DX001 (ip), vehicle: saline 101 % of control | endpoint: mean survival time, dose: 300.0 mg/kg/injection, schedule: Q01DX001 (ip), vehicle: saline 112 % of control

Oc1ccc(C(c2ccccc2)(c2ccccc2)c2ccccc2)cc1
inactive: [4] 94 % of control | [5] 89 % of control | [6] 91 % of control

O=C(Nc1ccc(Cl)cc1Cl)SCCO
inactive: [4] 108 % of control | [5] 101 % of control | [6] 95 % of control

Cc1ccc2nc3c(nc2c1)-c1cccc2cccc-3c12
inactive: [4] 92 % of control | [5] 94 % of control | [6] 106 % of control

O=C(O)CCCCCCCCC1CC(F)(F)C(F)(F)S1 (stereo not given)
inactive: [4] 98 % of control | [5] 92 % of control | [6] 95 % of control

OC1OCC(COc2ccc(Cl)cc2)OC1O (stereo not given)
inactive: endpoint: median survival time, dose: 25.0 mg/kg/injection, schedule: Q01DX005 (ip), vehicle: saline with Tween-80 102 % of control | endpoint: median survival time, dose: 50.0 mg/kg/injection, schedule: Q01DX005 (ip), vehicle: saline with Tween-80 102 % of control | endpoint: median survival time, dose: 100.0 mg/kg/injection, schedule: Q01DX005 (ip), vehicle: saline with Tween-80 115 % of control | endpoint: median survival time, dose: 144.0 mg/kg/injection, schedule: Q01DX005 (ip), vehicle: saline with Tween-80 102 % of control | endpoint: median survival time, dose: 200.0 mg/kg/injection, schedule: Q01DX005 (ip), vehicle: saline with Tween-80 117 % of control | endpoint: median survival time, dose: 240.0 mg/kg/injection, schedule: Q01DX005 (ip), vehicle: saline with Tween-80 101 % of control | endpoint: median survival time, dose: 400.0 mg/kg/injection, schedule: Q01DX005 (ip), vehicle: saline with Tween-80 96 % of control

O=C1CN(Cc2ccc3c(c2)OCO3)NO1
inactive: endpoint: mean survival time, dose: 6.25 mg/kg/injection, schedule: Q01DX009 (ip), vehicle: saline with Tween-80 98 % of control and 101 % of control | [1] 98 % of control | [2] 102 % of control and 109 % of control | [3] 113 % of control | [4] 120 % of control and 104 % of control

O=[N+]([O-])c1ccc(N/N=C(\c2ccccc2)C2OCCC2c2ccccc2)c([N+](=O)[O-])c1 (stereo not given)
inactive: [10] 97 % of control | [11] 91 % of control | [12] 94 % of control

CC(C)CC(NC(=O)CN)C(=O)O (stereo not given)
inactive: endpoint: mean survival time, dose: 100.0 mg/kg/injection, schedule: Q04DX002 (ip), vehicle: saline 93 % of control | endpoint: mean survival time, dose: 200.0 mg/kg/injection, schedule: Q04DX002 (ip), vehicle: saline 96 % of control | endpoint: mean survival time, dose: 400.0 mg/kg/injection, schedule: Q04DX002 (ip), vehicle: saline 107 % of control

O=C1C=C(c2ccccc2)C/C1=C\c1ccccc1
inactive: [13] 87 % of control | [14] 87 % of control

COc1ccc(Cl)cc1[N+](=O)[O-]
inactive: [10] 97 % of control | [11] 94 % of control | [12] 95 % of control

N#C/C(=C\c1ccc([N+](=O)[O-])o1)[N+](=O)[O-]
inactive: [7] 104 % of control | endpoint: mean survival time, dose: 50.0 mg/kg/injection, schedule: Q04DX003 (ip), vehicle: saline with Tween-80 94 % of control | [10] 97 % of control

Cc1ccc(CNc2ccc(C)c(Cl)c2)cc1
inactive: endpoint: mean survival time, dose: 100.0 mg/kg/injection, schedule: Q04DX003 (ip), vehicle: other 101 % of control | endpoint: mean survival time, dose: 200.0 mg/kg/injection, schedule: Q04DX003 (ip), vehicle: other 97 % of control | endpoint: mean survival time, dose: 400.0 mg/kg/injection, schedule: Q04DX003 (ip), vehicle: other 96 % of control

COc1ccc(OC)cc1
inactive: endpoint: mean survival time, dose: 100.0 mg/kg/injection, schedule: Q01DX001 (ip), vehicle: other 103 % of control | endpoint: mean survival time, dose: 200.0 mg/kg/injection, schedule: Q01DX001 (ip), vehicle: other 94 % of control | endpoint: mean survival time, dose: 400.0 mg/kg/injection, schedule: Q01DX001 (ip), vehicle: other 101 % of control

COc1cc(CC2c3cc(OC)c(OC)cc3CCN2C)c(Oc2cc3c(cc2OC)-c2c(OC)c(OC)c(OC)c4c2C(C3)N(C)CC4)cc1OC (stereo not given)
inactive: [3] 95 % of control | [4] 86 % of control

COc1ccc(OC)c(NC(=O)Oc2cccc(NC(C)=O)c2)c1
inactive: endpoint: mean survival time, dose: 50.0 mg/kg/injection, schedule: Q01DX009 (ip), vehicle: Klucel (hydroxypropylcellulose) (HPC) 105 % of control | [3] 103 % of control | endpoint: mean survival time, dose: 100.0 mg/kg/injection, schedule: Q01DX009 (ip), vehicle: Klucel (hydroxypropylcellulose) (HPC) 102 % of control | [4] 97 % of control | endpoint: mean survival time, dose: 200.0 mg/kg/injection, schedule: Q01DX009 (ip), vehicle: Klucel (hydroxypropylcellulose) (HPC) 100 % of control | endpoint: mean survival time, dose: 400.0 mg/kg/injection, schedule: Q01DX009 (ip), vehicle: Klucel (hydroxypropylcellulose) (HPC) 102 % of control | [6] 92 % of control
272 % of control and 100 % of control: [5]

CCOC(=O)N1C(C(=O)c2ccc(C)cc2)N(C2CCCCC2)C(c2ccccc2)N1C(=O)OCC (stereo not given)
inactive: [4] 90 % of control | [10] 97 % of control | [5] 93 % of control | [11] 92 % of control | [6] 90 % of control | [12] 93 % of control

O=[N+]([O-])c1cc(C2CCCCC2)c(O)c([N+](=O)[O-])c1
inactive: [8] 98 % of control | [9] 93 % of control | endpoint: mean survival time, dose: 20.0 mg/kg/injection, schedule: Q01DX009 (ip), vehicle: saline with Tween-80 89 % of control

COP(=O)(OC)C(=O)c1cccc2ccccc12
inactive: [10] 95 % of control | [11] 93 % of control | [12] 96 % of control

N#CC1c2ccccc2C=CN1C(=O)OCC(Cl)(Cl)Cl (stereo not given)
inactive: endpoint: mean survival time, dose: 100.0 mg/kg/injection, schedule: Q04DX003 (ip), vehicle: Klucel (hydroxypropylcellulose) (HPC) 102 % of control | endpoint: mean survival time, dose: 200.0 mg/kg/injection, schedule: Q04DX003 (ip), vehicle: Klucel (hydroxypropylcellulose) (HPC) 102 % of control | endpoint: mean survival time, dose: 400.0 mg/kg/injection, schedule: Q04DX003 (ip), vehicle: Klucel (hydroxypropylcellulose) (HPC) 103 % of control

COc1ccc(NCC(=O)O)c([N+](=O)[O-])c1
inactive: [10] 91 % of control | [11] 101 % of control

O=C1NC(=O)c2cccc3cccc1c23
inactive: [4] 100 % of control | [10] 98 % of control | [5] 96 % of control | [11] 102 % of control | [6] 94 % of control | [12] 100 % of control

CN1CC2C3CCC(C3)C2(C)C1O (stereo not given)
inactive: endpoint: mean survival time, dose: 50.0 mg/kg/injection, schedule: Q04DX002 (ip), vehicle: saline with Tween-80 103 % of control | [15] 103 % of control | [16] 87 % of control

Fc1cc2cc3ccccc3cc2c2ccccc12
inactive: [15] 101 % of control | [16] 104 % of control | endpoint: mean survival time, dose: 400.0 mg/kg/injection, schedule: Q04DX002 (ip), vehicle: saline with Tween-80 104 % of control

O=C(NCCCl)Nc1ccccc1Cl
inactive: [13] 90 % of control | [14] 94 % of control | [17] 98 % of control

CC(C)C1C(O)C23CCC4C(C)(CO)CCCC4(C)C2CC13 (stereo not given)
inactive: [13] 96 % of control | [14] 94 % of control | [17] 94 % of control
